Converted amounts (≈) assume the structure as drawn.
How the values were obtained:
[1] = system: Proteus penneri; test: Antimicrobial activity against Proteus penneri by broth dilution method; assay type: functional
[2] = system: Pseudomonas aeruginosa; test: Antimicrobial activity against Pseudomonas aeruginosa BA(C1-106) selected after 25 ug/ml of compound exposure by broth dilution method; assay type: functional
[3] = system: Pseudomonas aeruginosa; test: Antimicrobial activity against Pseudomonas aeruginosa BA(C2-107) selected after 25 ug/ml of compound exposure by broth dilution method; assay type: functional
[4] = system: Pseudomonas aeruginosa; test: Antimicrobial activity against mexAB-oprM, mexCD-oprJ, mexEF-oprN, mexJK, mexXY, opmH and pscC gene deficient Pseudomonas aeruginosa PAO750 by broth dilution method; assay type: functional
[5] = system: Serratia marcescens; test: Antimicrobial activity against Serratia marcescens by broth dilution method; assay type: functional
[6] = system: Pseudomonas aeruginosa; test: Antimicrobial activity against oprD protein deficient Pseudomonas aeruginosa C2 by broth dilution method; assay type: functional
[7] = system: Providencia stuartii; test: Antimicrobial activity against Providencia stuartii by broth dilution method; assay type: functional
[8] = system: Escherichia coli; test: Antimicrobial activity against Escherichia coli by broth dilution method; assay type: functional
[9] = system: Burkholderia sp.; test: Antimicrobial activity against Burkholderia sp. by broth dilution method; assay type: functional
[10] = system: Pseudomonas aeruginosa; test: Antimicrobial activity against Pseudomonas aeruginosa by broth dilution method; assay type: functional
[11] = system: Proteus vulgaris; test: Antimicrobial activity against Proteus vulgaris by broth dilution method; assay type: functional
[12] = system: Pseudomonas aeruginosa; test: Antimicrobial activity against Pseudomonas aeruginosa B4 by broth dilution method; assay type: functional
[13] = system: Pseudomonas aeruginosa; test: Antimicrobial activity against mexAB-oprM protein and mexCD-oprJ deficient Pseudomonas aeruginosa PAO253 overexpressing MexEF-OprN gene by broth dilution method; assay type: functional
[14] = system: Pseudomonas aeruginosa; test: Antimicrobial activity against Pseudomonas aeruginosa BA by broth dilution method; assay type: functional; conditions: Pseudomonas aeruginosa, BA; read-out: MIC
[15] = system: Acinetobacter sp.; test: Antimicrobial activity against Acinetobacter sp. by broth dilution method; assay type: functional
[16] = system: Klebsiella pneumoniae; test: Antimicrobial activity against Klebsiella pneumoniae by broth dilution method; assay type: functional
[17] = system: Pseudomonas aeruginosa; test: Antimicrobial activity against mexAB-oprM protein and mexCD-oprJ deficient Pseudomonas aeruginosa PAO238 by broth dilution method; assay type: functional
[18] = system: Klebsiella oxytoca; test: Antimicrobial activity against Klebsiella oxytoca by broth dilution method; assay type: functional
[19] = system: Proteus mirabilis; test: Antimicrobial activity against Proteus mirabilis by broth dilution method; assay type: functional
[20] = system: Pseudomonas aeruginosa; test: Antimicrobial activity against mexAB-oprM protein and mexZ deficient Pseudomonas aeruginosa PAO267 by broth dilution method; assay type: functional
[21] = system: Enterobacter cloacae; test: Antimicrobial activity against Enterobacter cloacae by broth dilution method; assay type: functional
[22] = system: Providencia rettgeri; test: Antimicrobial activity against Providencia rettgeri by broth dilution method; assay type: functional
[23] = system: Citrobacter freundii; test: Antimicrobial activity against Citrobacter freundii by broth dilution method; assay type: functional
[24] = system: Stenotrophomonas maltophilia; test: Antimicrobial activity against Stenotrophomonas maltophilia by broth dilution method; assay type: functional
[25] = system: Klebsiella aerogenes; test: Antimicrobial activity against Enterobacter aerogenes by broth dilution method; assay type: functional
[26] = system: Pseudomonas aeruginosa; test: microbe, parasite or virus in culture; conditions: PAO1
Description: Antimicrobial activity against Pseudomonas aeruginosa PAO1 by broth dilution method

With `CC(C)(O/N=C(\C(=O)N[C@@H]1C(=O)N2C(C(=O)[O-])=C(C[n+]3ccccc3)CS[C@H]12)c1csc(N)n1)C(=O)O` [CEFTAZIDIME] the MIC [1] was ≤ 0.06 µg/mL, the MIC50 [1] was ≤ 0.06 µg/mL and the MIC90 [1] was 0.25 µg/mL (≈ 0.457 µM). For the same compound, the MIC [2] was 16 µg/mL (≈ 29.3 µM), the MIC [3] was 2 µg/mL (≈ 3.66 µM) and the MIC [4] was 0.5 µg/mL (≈ 0.915 µM). It also gave an MIC50 [5] of 1 µg/mL (≈ 1.83 µM), an MIC90 [5] of 2 µg/mL (≈ 3.66 µM) and an MIC [6] of 2 µg/mL (≈ 3.66 µM). For the same compound, the MIC50 [7] was 1 µg/mL (≈ 1.83 µM), the MIC90 [7] was > 32 µg/mL and the MIC50 [8] was 32 µg/mL (≈ 58.5 µM). For the same compound, the MIC90 [8] was > 32 µg/mL, the MIC50 [9] was 2 µg/mL (≈ 3.66 µM) and the MIC90 [9] was 8 µg/mL (≈ 14.6 µM). For the same compound, the MIC50 [10] was 16 µg/mL (≈ 29.3 µM), the MIC90 [10] was > 32 µg/mL and the MIC [11] was ≤ 0.06 µg/mL. For the same compound, the MIC50 [11] was ≤ 0.06 µg/mL, the MIC90 [11] was 0.25 µg/mL (≈ 0.457 µM) and the MIC [12] was 4 µg/mL (≈ 7.32 µM). It also gave an MIC [13] of 0.25 µg/mL (≈ 0.457 µM), an MIC [14] of 2 µg/mL (≈ 3.66 µM) and an MIC50 [15] of 32 µg/mL (≈ 58.5 µM). The MIC90 [15] was > 32 µg/mL, the MIC50 [16] was > 32 µg/mL and the MIC90 [16] was > 32 µg/mL. The MIC [17] was 0.5 µg/mL (≈ 0.915 µM), the MIC50 [18] was 1 µg/mL (≈ 1.83 µM) and the MIC90 [18] was 8 µg/mL (≈ 14.6 µM). The MIC [19] was ≤ 0.06 µg/mL, the MIC50 [19] was ≤ 0.06 µg/mL and the MIC90 [19] was 0.25 µg/mL (≈ 0.457 µM). For the same compound, the MIC [20] was 0.5 µg/mL (≈ 0.915 µM), the MIC50 [21] was 16 µg/mL (≈ 29.3 µM) and the MIC90 [21] was > 32 µg/mL. For the same compound, the MIC50 [22] was 1 µg/mL (≈ 1.83 µM), the MIC90 [22] was > 32 µg/mL and the MIC [23] was > 32 µg/mL. The MIC50 [23] was > 32 µg/mL, the MIC90 [23] was > 32 µg/mL and the MIC50 [24] was 2 µg/mL (≈ 3.66 µM). For the same compound, the MIC90 [24] was 16 µg/mL (≈ 29.3 µM), the MIC50 [25] was > 32 µg/mL and the MIC90 [25] was > 32 µg/mL. The MIC [26] was 1 µg/mL (≈ 1.83 µM).
